{"source": "patent US20150223465A1", "about": "“COMPOSITION CONTAINING 3-CYCLOPROPYL-1-ENYL-PROPANOIC ACID SALTS AND A CARRIER” (Yissum Research Development Company of the Hebrew …, priority 2012, published 2015)", "key": {"cut carnation flowers [1]": {"test_system": "cut carnation flowers", "assay": "Delaying senescence of cut carnation flowers: loading 24 h in CPAS solution, then 2 ppm ethylene for 24 h, visual inspection/photographs", "assay_type": "in vivo, carnation (Dianthus caryophyllus)", "parameters": "key to Results (ethylene antagonizing effect of CPAS by visual inspection): The result “−” means no ethylene antagonizing effect by visual inspection.; The result “+++” means high ethylene antagonizing effect by visual inspection.; The result “++++” means very high ethylene antagonizing effect by visual inspection", "text": "(§1) The ethylene antagonizing effect of composition described herein can be assessed by its effect of delaying senescence of cut plants, such as cut flowers. Some embodiments of the present invention are based on the use of the composition described herein to treat cut flowers for delaying senescence of the cut flowers.\n(§2) Cut Flowers: Unless otherwise noted, carnation flowers grown in a greenhouse were harvested at the beginning of flower opening stage, early in the morning, and were immediately brought to the laboratory. The flowers were either processed immediately or stored in a cold room (4° C.) for 1 to 5 days as required.\nTreatment Procedure: The flower stems were cut under tap water to the desired lengths (15 cm-55 cm). Four flowers for each treatment group (of two flowers per each groups) were loaded in a 20 mL aqueous treatment solution (or “loading solution”) for 24 hours. The treatment solution was placed in a 35 mL tube. The loading solutions of CPAS in buffers were prepared in distilled water, as described hereinafter. At the end of CPAS loading, the flowers were transferred to tap water for 1 to 4 days until the cut flowers open. The cut flowers were then exposed to 2 ppm ethylene for 24 hours. Control cut flowers were loaded in a control solution without CPAS in the same manner as the treated cut flowers, and were thereafter exposed to ethylene or air. At the end of ethylene exposure, the flowers were ventilated and left in tap water under controlled conditions (a temperature of 22° C., a relative humidity of 80%, and continuous fluorescent light) for additional 5 days for senescence assessment."}, "cut carnation flowers [2]": {"test_system": "cut carnation flowers", "assay": "Delaying senescence of cut carnation flowers: loading 24 h in CPAS solution, then 2 ppm ethylene for 24 h, visual inspection/photographs", "assay_type": "in vivo, carnation (Dianthus caryophyllus)", "parameters": "key: The result “−” means no ethylene antagonizing effect by visual inspection.; The result “+” means low ethylene antagonizing effect by visual inspection.; The result “++” means medium ethylene antagonizing effect by visual inspection.; The result “+++” means high ethylene antagonizing effect by visual inspection.; The result “++++” means very high ethylene antagonizing effect by visual inspection", "conditions": "CPAS sodium salt 20-120 ppm, 36-55 cm stems", "text": "as §1, §2\nTreatment Procedure: The flower stems were cut under tap water to the desired lengths (15 cm-55 cm). Four flowers for each treatment group (of two flowers per each groups) were loaded in a 20 mL aqueous treatment solution (or “loading solution”) for 24 hours. The treatment solution was placed in a 35 mL tube. The loading solutions of CPAS in buffers were prepared in distilled water, as described hereinafter. At the end of CPAS loading, the flowers were transferred to tap water for 1 to 4 days until the cut flowers open. The cut flowers were then exposed to 2 ppm ethylene for 24 hours. Control cut flowers were loaded in a control solution without CPAS in the same manner as the treated cut flowers, and were thereafter exposed to ethylene or air. […]"}}}
{"smiles": "O=C([O-])CCC1=CC1.[Na+]", "note": "[CPAS, 3-cyclopropyl-1-enyl-propanoic acid salt]", "values": [{"measurement": "senescence of cut flowers", "setting": "cut carnation flowers [1]; 36 cm stems, 60 and 120 ppm CPAS in Na-phosphate buffer (20 mM) containing NaHCO3 (60 mM), pH 7.2", "result": "delayed senescence"}, {"measurement": "flower senescence", "setting": "cut carnation flowers [1]; 60 or 120 ppm CPAS in 20 mM Na2CO3/NaHCO3 buffer pH 9.4, 36 cm stems", "result": "delayed flower senescence"}, {"measurement": "flower senescence", "setting": "cut carnation flowers [1]; 120 ppm CPAS in 20 mM NaHCO3 pH 8.2, 36 cm stems", "result": "delayed flower senescence"}, {"measurement": "Results (ethylene antagonizing effect of CPAS by visual inspection)", "setting": "cut carnation flowers [1]; CPAS sodium salt 20-120 ppm in Na2CO3/NaHCO3 buffer 20 mM pH 9.2-9.4", "result": "++++"}, {"measurement": "Results (ethylene antagonizing effect of CPAS by visual inspection)", "setting": "cut carnation flowers [1]; CPAS sodium salt 20-120 ppm in Na-Phosphate buffer 20 mM pH 7.6", "result": "−"}, {"measurement": "Results (ethylene antagonizing effect of CPAS by visual inspection)", "setting": "cut carnation flowers [1]; CPAS sodium salt 20-120 ppm in NaHCO3 20 mM pH 8.2", "result": "+++"}, {"measurement": "senescence of cut flowers", "setting": "cut carnation flowers [1]; CPAS sodium salt 20-160 ppm in Glycine/NaOH buffer 20 mM pH 8.8, 36 cm stems, loading 24 h", "result": "no effect"}, {"measurement": "senescence of cut flowers", "setting": "cut carnation flowers [1]; CPAS sodium salt 20-160 ppm in H3BO3/NaOH buffer 20 mM pH 9.2, 36 cm stems, loading 24 h", "result": "no effect"}, {"measurement": "senescence of cut flowers", "setting": "cut carnation flowers [1]; CPAS sodium salt 20-160 ppm in Na2CO3/NaHCO3 buffer 20 mM pH 9.4, 36 cm stems, loading 24 h", "result": "showed delayed senescence"}, {"measurement": "senescence of cut flowers", "setting": "cut carnation flowers [1]; stem length 15 cm, 40, 60 and 120 ppm CPAS in 20 mM NaHCO3 pH 8.2", "result": "showed delayed senescence"}, {"measurement": "senescence of cut flowers", "setting": "cut carnation flowers [1]; stem length 36 cm, 120 mM CPAS (so in the source) in 20 mM NaHCO3 pH 8.2", "result": "showed delayed senescence"}, {"measurement": "senescence of cut flowers", "setting": "cut carnation flowers [1]; stem length 55 cm, 120 mM CPAS (so in the source) in 20 mM NaHCO3 pH 8.2", "result": "No delayed senescence"}, {"measurement": "senescence of cut flowers", "setting": "cut carnation flowers [1]; stem length 55 cm, 60 or 120 ppm CPAS in 60 mM Na2CO3/NaHCO3 buffer pH 9.4", "result": "showed delayed senescence"}, {"measurement": "senescence of cut flowers", "setting": "cut carnation flowers [1]; stem length 55 cm, 120 ppm CPAS in 60 mM NaHCO3 pH 8.2", "result": "showed delayed senescence"}, {"measurement": "Results (efficacy of CPAS, ethylene antagonizing effect by visual inspection)", "setting": "cut carnation flowers [2]; EDTA 500-1000 ppm", "result": "+"}, {"measurement": "Results (efficacy of CPAS, ethylene antagonizing effect by visual inspection)", "setting": "cut carnation flowers [2]; KHCO3 20-80 mM pH 8.2", "result": "++"}]}
